In US20210163896A1, “METHOD FOR PRODUCING ANIMAL CELL CONTAINING DNA OF INTEREST USING MICRONUCLEATE CELL FUSION METHOD” (NATIONAL UNIVERSITY CORPORATION TOTTORI UNIVERSITY, priority 2018, published 2021):

Experiments:
[1] = system: Human immortalized mesenchymal stem cells (hiMSC); test: Micronucleation induction in human immortalized mesenchymal stem cells, DAPI staining; type: cell-based; conditions: 48 hours
Procedure: Human immortalized mesenchymal stem cells (hiMSC: provided by Dr. Toguchida, Kyoto University) were seeded in individual wells of a 6-well plate at a density of 5×10^5 cells per well and cultured at 37° C. in the condition of 5% CO2 for 24 hours. For the micro nucleation induction experiment, 26 conditions in total were designed based on treatments with colcemid (0.05 μg/mL, 0.1 μg/mL, 0.2 μg/mL), MAS (0.1 μg/mL, 0.2 μg/mL, 0.4 μg/mL) and paclitaxel (0.8 nM, 4 nM, 20 nM, 100 nM, 400 nM), with the addition of reversine (no addition, 500 nM, 1000 nM, 1500 nM) during the treatments, and the cells were cultured at 37° C. in the condition of 5% CO2 for 48 hours.
In order to observe living cells after micronucleation induction, the cells were fixed with 4% paraformaldehyde and stained with DAPI (concentration: 1 μg/mL) for 15 minutes. The fixed cells were observed by fluorescence microscopy and the micronuclear formation induction rates were compared. Whether or not micronuclei were formed in individual cells was observed and the results are shown in a figure (FIG. 2).

[2] = system: Human iPS cells; test: Micronucleation induction in human iPS cells, microscopic observation; type: cell-based; conditions: 48 hours, MAS 0.2 μg/mL compared to colcemid 0.25 μg/mL, paclitaxel 20-400 nM, reversine 0-1500 nM added
Procedure: Human iPS cells were seeded to a 6-well plate previously coated with 0.5 μg/cm^2 Laminin™-511 (Nippi. Inc.) at a density of 5×10^5 cells per well, and 10 μM Y-27632 was added. The human iPS cells were incubated at 37° C. in the condition of 5% CO2 for 24 hours. For a micronucleation induction experiment, 22 conditions in total were designed based on treatments with colcemid 0.25 μg/mL, MAS 0.2 μg/mL or paclitaxel (20 nM, 40 nM, 60 nM, 100 nM, 400 nM) with the addition of reversine (no addition, 500 nM, 1000 nM, 1500 nM) during the treatments, and the cells were cultured at 37° C. in the condition of 5% CO2 for 48 hours.
After micronucleation induction, the micronucleation induction rates were compared based on microscopic observation.

[3] = system: CHO MHG#4a cells; test: Micronucleation induction in CHO cells, fluorescence-microscopic observation; type: cell-based, Chinese hamster; conditions: 72 hours, paclitaxel 0-1920 nM, reversine 0-12288 nM
Procedure: Ninety six conditions, which were designed by combinations of paclitaxel (0 nM, 96 nM, 192 nM, 384 nM, 768 nM, 1152 nM, 1536 nM, 1920 nM) and reversine (0 nM, 192 nM, 384 nM, 768 nM, 1536 nM, 3072 nM, 4608 nM, 6144 nM, 7680 nM, 9216 nM, 10752 nM, 12288 nM), were assigned to the wells. Culture was carried out at 37° C. in the condition of 5% CO2 for 72 hours.
After micronucleation induction, the micronucleation induction rates were compared based on observation by fluorescence microscopy.

`CC(=O)O[C@H]1C(=O)[C@@]2(C)[C@H]([C@H](OC(=O)c3ccccc3)[C@]3(O)C[C@H](OC(=O)[C@H](O)[C@@H](NC(=O)c4ccccc4)c4ccccc4)C(C)=C1C3(C)C)[C@]1(OC(C)=O)CO[C@@H]1C[C@@H]2O` [paclitaxel] was tested, and the “micronucleation induction, usefulness of agent” value [1] was “effective”, the micronucleation induction rate [2] was “micronucleation rate increases in a concentration dependent manner” and the micronucleation rate [3] was “micronucleation rate increases in a concentration dependent manner”.

In the case of `c1nc2nc(Nc3ccc(N4CCOCC4)cc3)nc(NC3CCCCC3)c2[nH]1` [reversine], the “micronucleation induction, usefulness of agent” value [1] is reported as “useful”, the micronucleation induction rate [2] is reported as “useful” and the micronucleation rate [3] is reported as “micronucleation rate increases in a concentration dependent manner”.
